How the values were obtained:
Type in all cases: biochemical
mTOR [1] = biological target: T1, mTOR (Homo sapiens, UniProt P42345); assay: In Vitro mTOR Kinase Assay (Echo), Test (a)(ii)
T1 construct: FLAG; made in house
In short: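 Enzyme: HEK293-expressed, FLAG-purified mTOR C-terminal fragment (aa 1362-2549). Rxn 2 h RT with biotinylated peptide, stopped with EDTA 50 mM/BSA/Tris pH 7.4. Detection: T389 phospho-antibody AlphaScreen, 680 nm excitation. IC50.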

p110α Type Ia human PI3K = biological target: T2, p110α Type Ia human PI3K (Homo sapiens, UniProt P42336); assay: In Vitro PI3K Enzyme Assay (AlphaScreen), Test (b)(i), p110α; settings: read-out: IC50 versus p110α Type Ia human PI3K
T2 construct: full length DNA of each of the p110α, p110β and p110δ Type Ia human PI3K p110 isoforms; 6-His; made in house
Excerpt: (b)(i) In Vitro PI3K Enzyme Assay
The assay used AlphaScreen technology (Gray et al., Analytical Biochemistry, 2003, 313: 234-245) to determine the ability of test compounds to inhibit phosphorylation by recombinant Type I PI3K enzymes of the lipid PI(4,5)P2.
DNA fragments encoding human PI3K catalytic and regulatory subunits were isolated from cDNA libraries using standard molecular biology and PCR cloning techniques. The selected DNA fragments were used to generate baculovirus expression vectors. In particular, full length DNA of each of the p110α, p110β and p110δ Type Ia human PI3K p110 isoforms (EMBL Accession Nos. HSU79143, S67334, Y10055 for p110α, p110β and p110δ respectively) were sub-cloned into a pDEST10 vector (Invitrogen Limited, Fountain Drive, Paisley, UK). The vector is a Gateway-adapted version of Fastbac1 containing a 6-His epitope tag. […]
Biotinylated-DiC8-PI(3,4,5)P3 (50 nM; Cell Signals Inc., Catalogue No. 107), recombinant purified GST-Grp1 PH protein (2.5 nM) and AlphaScreen Anti-GST donor and acceptor beads (100 ng; Packard Bioscience Limited, Station Road, Pangbourne, Berkshire, UK, Catalogue No. 6760603M) were added and the assay plates were left for about 5 to 20 hours at room temperature in the dark. The resultant signals arising from laser light excitation at 680 nm were read using a Packard AlphaQuest instrument. […]

mTOR [2] = biological target: T1, mTOR; assay: mTOR Kinase Assay (Echo)
[3] = table of enzyme assay Test (a)(ii), read-out: Test (a)(ii) IC50

T1 sequence (P42345 1362-2549): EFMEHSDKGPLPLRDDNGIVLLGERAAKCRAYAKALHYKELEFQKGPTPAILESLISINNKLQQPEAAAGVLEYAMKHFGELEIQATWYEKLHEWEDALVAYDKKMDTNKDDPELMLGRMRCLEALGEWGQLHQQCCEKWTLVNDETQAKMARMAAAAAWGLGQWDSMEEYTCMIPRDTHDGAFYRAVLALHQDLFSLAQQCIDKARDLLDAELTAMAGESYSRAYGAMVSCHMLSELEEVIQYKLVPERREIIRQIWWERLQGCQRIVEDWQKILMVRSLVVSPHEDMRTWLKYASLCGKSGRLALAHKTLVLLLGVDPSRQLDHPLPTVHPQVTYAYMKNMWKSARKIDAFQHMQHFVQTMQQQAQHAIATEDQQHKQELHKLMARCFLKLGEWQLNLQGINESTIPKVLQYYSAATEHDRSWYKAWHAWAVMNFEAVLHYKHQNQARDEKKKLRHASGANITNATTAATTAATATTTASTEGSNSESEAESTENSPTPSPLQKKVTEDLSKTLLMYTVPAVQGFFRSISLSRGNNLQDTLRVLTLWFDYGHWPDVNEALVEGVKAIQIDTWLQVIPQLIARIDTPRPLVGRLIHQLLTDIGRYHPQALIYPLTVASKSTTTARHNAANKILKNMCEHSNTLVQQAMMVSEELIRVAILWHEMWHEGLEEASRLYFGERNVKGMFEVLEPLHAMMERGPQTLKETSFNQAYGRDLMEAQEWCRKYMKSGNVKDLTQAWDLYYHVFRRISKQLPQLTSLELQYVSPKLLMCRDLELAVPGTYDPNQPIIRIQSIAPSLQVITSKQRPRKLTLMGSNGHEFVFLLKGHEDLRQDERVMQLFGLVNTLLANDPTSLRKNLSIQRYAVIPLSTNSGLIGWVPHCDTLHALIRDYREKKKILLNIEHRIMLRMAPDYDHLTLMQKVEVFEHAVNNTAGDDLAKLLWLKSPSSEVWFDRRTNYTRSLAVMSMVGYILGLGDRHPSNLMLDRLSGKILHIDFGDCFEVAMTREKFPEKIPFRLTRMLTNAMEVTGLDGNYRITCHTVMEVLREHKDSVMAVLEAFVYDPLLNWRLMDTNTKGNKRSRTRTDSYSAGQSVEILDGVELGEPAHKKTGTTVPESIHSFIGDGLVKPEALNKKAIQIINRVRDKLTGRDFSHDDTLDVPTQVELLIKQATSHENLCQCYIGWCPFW
T2 sequence (P42336 whole entry, canonical isoform): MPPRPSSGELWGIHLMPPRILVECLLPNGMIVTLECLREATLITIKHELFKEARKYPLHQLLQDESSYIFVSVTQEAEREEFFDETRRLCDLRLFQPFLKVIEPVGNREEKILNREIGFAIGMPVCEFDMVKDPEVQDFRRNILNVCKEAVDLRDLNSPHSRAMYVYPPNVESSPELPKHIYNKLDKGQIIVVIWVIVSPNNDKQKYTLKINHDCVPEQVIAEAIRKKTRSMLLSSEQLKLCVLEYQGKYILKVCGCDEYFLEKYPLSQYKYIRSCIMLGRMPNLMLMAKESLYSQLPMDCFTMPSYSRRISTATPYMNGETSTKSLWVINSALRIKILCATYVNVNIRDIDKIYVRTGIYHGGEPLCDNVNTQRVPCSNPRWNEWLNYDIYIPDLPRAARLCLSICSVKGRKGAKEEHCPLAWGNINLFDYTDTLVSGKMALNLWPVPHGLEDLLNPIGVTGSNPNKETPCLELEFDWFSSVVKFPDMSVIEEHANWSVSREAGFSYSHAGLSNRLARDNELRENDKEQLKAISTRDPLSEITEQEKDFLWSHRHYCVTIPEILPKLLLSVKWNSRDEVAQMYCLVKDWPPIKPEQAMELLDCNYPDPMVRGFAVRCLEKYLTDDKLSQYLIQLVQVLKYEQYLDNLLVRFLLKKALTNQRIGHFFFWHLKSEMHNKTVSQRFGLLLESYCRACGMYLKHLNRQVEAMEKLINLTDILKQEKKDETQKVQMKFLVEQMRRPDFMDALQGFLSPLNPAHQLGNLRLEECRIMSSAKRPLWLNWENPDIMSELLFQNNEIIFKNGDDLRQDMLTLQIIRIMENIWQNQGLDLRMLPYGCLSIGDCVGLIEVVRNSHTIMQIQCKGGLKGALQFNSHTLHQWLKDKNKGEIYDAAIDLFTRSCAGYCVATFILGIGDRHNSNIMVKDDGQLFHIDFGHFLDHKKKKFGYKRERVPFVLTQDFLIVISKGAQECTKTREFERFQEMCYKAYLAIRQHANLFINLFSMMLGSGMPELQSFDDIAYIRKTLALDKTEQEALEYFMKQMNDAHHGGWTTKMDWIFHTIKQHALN
T2 sequence (P27986 whole entry partner, canonical isoform): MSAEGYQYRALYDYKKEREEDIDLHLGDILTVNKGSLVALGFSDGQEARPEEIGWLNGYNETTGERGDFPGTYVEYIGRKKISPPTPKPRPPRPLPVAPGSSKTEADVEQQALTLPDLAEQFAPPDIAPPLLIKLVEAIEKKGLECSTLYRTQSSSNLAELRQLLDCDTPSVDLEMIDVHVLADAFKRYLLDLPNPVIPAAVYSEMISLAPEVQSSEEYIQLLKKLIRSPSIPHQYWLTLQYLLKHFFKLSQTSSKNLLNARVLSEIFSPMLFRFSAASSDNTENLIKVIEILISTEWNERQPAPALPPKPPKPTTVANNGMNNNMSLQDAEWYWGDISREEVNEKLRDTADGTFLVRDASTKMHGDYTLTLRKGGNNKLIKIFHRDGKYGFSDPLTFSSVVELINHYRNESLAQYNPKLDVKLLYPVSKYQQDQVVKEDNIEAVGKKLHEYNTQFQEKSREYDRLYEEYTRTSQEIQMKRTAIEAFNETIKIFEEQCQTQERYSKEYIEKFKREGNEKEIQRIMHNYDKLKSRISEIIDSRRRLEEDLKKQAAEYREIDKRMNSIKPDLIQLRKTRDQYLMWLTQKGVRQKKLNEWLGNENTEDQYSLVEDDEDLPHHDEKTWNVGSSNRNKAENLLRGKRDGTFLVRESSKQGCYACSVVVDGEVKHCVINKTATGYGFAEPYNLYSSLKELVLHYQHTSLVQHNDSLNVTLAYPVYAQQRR

SMILES | IC50 (mTOR [1]; read-out: mTOR Kinase Assay (Echo)) | IC50 (p110α Type Ia human PI3K) | IC50 (mTOR [1]; [3]) | IC50 (mTOR [2])
C[C@H]1COCCN1c1cc(C2(S(C)(=O)=O)CC2)nc(-c2ccc(NC(=O)Nc3cnn(C)c3)cc2)n1 [Example 2b, 1-[4-[4-[(3S)-3-methylmorpholin-4-yl]-6-(1-methylsulfonylcyclopropyl)pyrimidin-2-yl]phenyl]-3-(1-methylpyrazol-4-yl)urea] | 0.169 nM | 1040 nM | – | –
C[C@H]1COCCN1c1cc(C2(S(=O)(=O)c3ccccc3)CC2)nc(-c2ccc(NC(=S)NCc3ncc[nH]3)cc2)n1 [Example 37ac, 1-[4-[4-[1-(benzenesulfonyl)cyclopropyl]-6-[(3S)-3-methylmorpholin-4-yl]pyrimidin-2-yl]phenyl]-3-(1H-imidazol-2-ylmethyl)thiourea] | – | – | 43.8 nM | 29.8 nM
C[C@H]1COCCN1c1cc(C2(S(=O)(=O)CCCO)CC2)nc(-c2ccc(NC(=S)NC3CC3)cc2)n1 [Example 37h, 3-cyclopropyl-1-[4-[4-[1-(3-hydroxypropylsulfonyl)cyclopro-pyl]-6-[(3S)-3-methylmorpholin-4-yl]pyrimidin-2-yl]phenyl]thiourea] | – | – | 19.8 nM | 13.2 nM
C[C@H]1COCCN1c1cc(C2(S(=O)(=O)CCCO)CC2)nc(-c2ccc(NC(=S)NCCO)cc2)n1 [Example 37i, 3-(2-hydroxyethyl)-1-[4-[4-[1-(3-hydroxypropylsulfonyl)cyclopro-pyl]-6-[(3S)-3-methylmorpholin-4-yl]pyrimidin-2-yl]phenyl]thiourea] | – | – | 3.79 nM | 3.06 nM
CCNC(=S)Nc1ccc(-c2nc(N3CCOC[C@@H]3C)cc(C3(S(=O)(=O)CCCO)CC3)n2)cc1 [Example 37k, 1-ethyl-3-[4-[4-[1-(3-hydroxypropylsulfonyl)cyclopro-pyl]-6-[(3S)-3-methylmorpholin-4-yl]pyrimidin-2-yl]phenyl]thiourea] | – | – | 16.1 nM | 11.4 nM
C[C@H]1COCCN1c1cc(C2(S(=O)(=O)c3ccccc3)CC2)nc(-c2ccc(NC(=S)NCCC#N)cc2)n1 [Example 37y, 1-[4-[4-[1-(benzenesulfonyl)cyclopropyl]-6-[(3S)-3-methylmorpholin-4-yl]pyrimidin-2-yl]phenyl]-3-(2-cyanoethyl)thiourea] | – | – | 6.86 nM | 5.53 nM
C[C@H]1COCCN1c1cc(C2(S(=O)(=O)c3ncc[nH]3)CC2)nc(-c2ccc(NC(=O)NC3CC3)cc2)n1 [Example 40a, 3-cyclopropyl-1-[4-[4-[1-(1H-imidazol-2-ylsulfonyl)cyclopropyl]-6-[(3S)-3-methylmorpholin-4-yl]pyrimidin-2-yl]phenyl]urea] | – | – | 2.21 nM | 6.49 nM
CCNC(=O)Nc1ccc(-c2nc(N3CCOCC3)cc(C3(S(=O)(=O)c4nc(C)cs4)CC3)n2)cc1 [Example 42d, 1-ethyl-3-[4-[4-[1-[(4-methyl-1,3-thiazol-2-yl)sulfonyl]cyclopropyl]-6-morpholin-4-ylpyrimidin-2-yl]phenyl]urea] | – | – | 0.607 nM | 0.425 nM
CCNC(=O)Nc1ccc(-c2nc(N3CCOC[C@@H]3C)cc(C3(S(=O)(=O)CCNC(C)=O)CC3)n2)cc1 [Example 45, N-[2-[1-[2-[4-(Ethylcarbamoylamino)phenyl]-6-[(3S)-3-methylmorpholin-4-yl]pyrimidin-4-yl]cyclopropyl]sulfonylethyl]acetamide] | – | – | 7.17 nM | 21.9 nM
CNC(=O)Nc1ccc(-c2nc(N3CCOC[C@@H]3C)cc(C3(S(=O)(=O)c4ccc(F)cn4)CC3)n2)cc1 [Example 48, 1-[4-[4-[1-(5-Fluoropyridin-2-yl)sulfonylcyclopropyl]-6-[(3S)-3-methylmorpholin-4-yl]pyrimidin-2-yl]phenyl]-3-methylurea] | – | – | 0.72 nM | 2.52 nM
C[C@H]1COCCN1c1cc(C2(S(=O)(=O)c3ccc(F)cn3)CC2)nc(-c2ccc(NC(=O)NC3CC3)cc2)n1 [Example 48a, 3-cyclopropyl-1-[4-[4-[1-(5-fluoropyridin-2-yl)sulfonylcyclopropyl]-6-[(3S)-3-methylmorpholin-4-yl]pyrimidin-2-yl]phenyl]urea] | – | – | 1.16 nM | 1.03 nM
C[C@H]1COCCN1c1cc(C2(S(C)(=O)=O)CC2)nc(-c2ccc(NC(=O)Nc3cnn(C)c3)c(F)c2)n1 [Example 52d, 1-[2-fluoro-4-[4-[(3S)-3-methylmorpholin-4-yl]-6-(1-methylsulfonylcyclopropyl)pyrimidin-2-yl]phenyl]-3-(1-methylpyrazol-4-yl)urea] | – | – | 5.88 nM | 10.7 nM

Reference: patent US20090018134A1, “Compounds - 945” (AstraZeneca AB, priority 2007, published 2009)
